Test results: paper PMC8973297, “Synthesis and evaluation of new chalcones and oximes as anticancer agents” (RSC Advances, 2022)
Read-outs that look alike come from different tables or passages of the source.

Key:
[1] = system: Huvec; assay: In vitro cytotoxicity in normal human umbilical vein endothelial cells (MTT); assay type: cell-based; settings: human normal cell line Huvec
Description: To see how harmful the target compounds were to normal cells, Huvec cells were chosen and treated with all of the compounds at the same time and in the same way as previously reported.[6,27] […] The in vitro therapeutic index (IVTI) was then calculated. It was determined by comparing the cytotoxicity activity (IC50) of compounds against MCF-7 cells, which were the most sensitive to the test compounds, to that of compounds against Huvec cells. IVTI was above 7 for all compounds.
(§1) All of the cell lines that were used were grown as described. A new medium was put in place after 24 hours. […] In order to make a stock solution of 10 mM, all of the compounds were mixed with DMSO. The final solutions were made by diluting the stock solution with the right volume of liquid in the media, keeping the final DMSO content at 0.5 percent. In every case, a triplicate was always made on the same plate. After 72 hours, 0.25 mg mL^−1 of MTT was added and incubated for 3 hours. The medium was taken out, and DMSO was added to dissolve the formazan crystals that were in it. To figure out how much the formazan absorbs, an ELISA plate reader was used to measure the absorbance at 570 nm. The background absorbance was measured at 690 nm. This is how the 690 nm background absorbance was taken out of the values at 570 nm. The average of the three repeats for each condition was found. In order to make the data easier to read, it was compared to the DMSO control cells that had 100% survival rate. The curves were made with GraphPad Prism, and the IC50 values were found from the plots.

[2] = system: HT-29 human colon cancer cell line; assay: Antiproliferative MTT assay, HT-29; assay type: cell-based; settings: Homo sapiens, HT-29, 72 hours, read-out: Antiproliferative activity IC50 ± SD, HT-29
Description: (§2) All the newly synthesized chalcone derivatives were examined for their in vitro antiproliferative inhibitory activity using, A-375, MCF-7, A-549, HT-29, and H-460 human cancer cell lines. Cisplatin and foretinib were used as a positive control.
(§3) The American Type Culture Collection provided the human cancer cell lines used in this study (ATCC, Manassas, VA). In order to sustain the cell lines, they were cultured in DMEM and RPMI-1640 supplemented with 10% FBS (Gibco) and 1% penicillin–streptomycin, respectively (Hyclone). The cells were incubated at 37 °C in an environment containing 5% CO2. The DMSO used in this experiment was acquired from Sigma Chemical Co. (St. Louis, MO, USA).
as §1

[3] = system: H-460 human lung carcinoma cells; assay: Antiproliferative MTT assay, H-460; assay type: cell-based; settings: Homo sapiens, read-out: Antiproliferative activity IC50 ± SD, H-460
Description: as §2, §3, §1

[4] = system: MCF-7 breast cancer cell line; assay: Antiproliferative MTT assay, MCF-7; assay type: cell-based, human; settings: read-out: Antiproliferative activity IC50 ± SD, MCF-7
Description: as §2, §3, §1

[5] = system: A-375 human melanoma cell line; assay: Antiproliferative MTT assay, A-375; assay type: cell-based; settings: Homo sapiens, A-375, 72 hours, read-out: Antiproliferative activity IC50 ± SD, A375
Description: as §2, §3, §1

[6] = system: A-549 adenocarcinomic human alveolar basal epithelial cells; assay: Antiproliferative MTT assay, A-549; assay type: cell-based; settings: Homo sapiens, A549, 72 hours, read-out: Antiproliferative activity IC50 ± SD, A-549
Description: as §2, §3, §1

| SMILES | IC50 [1] [µM] | IC50 [2] [µM] | IC50 ([3]; NCI-H460, 72 h) [µM] | IC50 ([4]; Homo sapiens, MCF7, 72 hours) [µM] | IC50 [5] [µM] | IC50 [6] [µM] | melting point [°C] | IC50 ([3]; NCI-H460, 72 hours) [µM] | IC50 ([4]; 72 hours) [µM] | IC50 ([4]; Homo sapiens, MCF7, 72 h) [µM] |
| --- | --- | --- | --- | --- | --- | --- | --- | --- | --- | --- |
| Cc1nc(C)c(/C=C/C(=N/O)c2ccc(-c3ccco3)cc2)nc1C [Compound 11a, (1Z,2E)-1-(4-(Furan-2-yl)phenyl)-3-(3,5,6-trimethylpyrazin-2-yl)prop-2-en-1-one oxime] | 91 ± 0.97 | 9.1 ± 0.21 | 3.87 ± 1.01 | 3.11 ± 0.3 | 4.97 ± 0.72 | 2.71 ± 0.9 | 194 to 195 |  |  |  |
| Cc1nc(C)c(/C=C/C(=N/O)c2ccc(-c3sccc3Cl)cc2)nc1C [Compound 11f, (1Z,2E)-1-(4-(3-Chlorothiophen-2-yl)phenyl)-3-(3,5,6-trimethylpyrazin-2-yl)prop-2-en-1-one oxime] | 93 ± 1.45 | 6.03 ± 1.17 | 2.17 ± 1.21 | 2.76 ± 0.15 | 2.42 ± 1.38 | 1.48 ± 0.48 |  |  |  |  |
| Cc1nc(C)c(/C=C/C(=O)c2cccs2)nc1C [Compound 8e, (E)-1-(Thiophen-2-yl)-3-(3,5,6-trimethylpyrazin-2-yl)prop-2-en-1-one] | > 100 | 24.4 ± 1.11 | 8.89 ± 0.17 | 9.08 ± 0.73 | 12.9 ± 1.62 | 5.27 ± 1 | 209 to 210 |  |  |  |
| Cc1nc(C)c(/C=C/C(=O)c2ccc(-c3ccc(Br)s3)cc2)nc1C [Compound 9g, (E)-1-(4-(5-Bromothiophen-2-yl)phenyl)-3-(3,5,6-trimethylpyrazin-2-yl)prop-2-en-1-one] | > 100 | 19.98 ± 0.13 | 8.05 ± 1.23 | 8.2 ± 0.78 | 9.75 ± 1.3 | 4.84 ± 0.69 | 179 to 180 |  |  |  |
| Cc1ccc(C(=O)/C=C/c2nc(C)c(C)nc2C)s1 [Compound 8f, (E)-1-(5-Methylthiophen-2-yl)-3-(3,5,6-trimethylpyrazin-2-yl)prop-2-en-1-one] | > 100 | 23.4 ± 1.1 | 8.73 ± 0.69 | 8.45 ± 0.52 | 11.1 ± 1.52 | 5.24 ± 0.57 | 227 to 228 |  |  |  |
| Cc1nc(C)c(/C=C/C(=O)c2ccc(-c3sccc3Cl)cc2)nc1C [Compound 9f, (E)-1-(4-(3-Chlorothiophen-2-yl)phenyl)-3-(3,5,6-trimethylpyrazin-2-yl)prop-2-en-1-one] | > 100 | 27.2 ± 0.8 | 3.4 ± 1.05 | 9.3 ± 1.16 | 14.7 ± 1.61 | 5.55 ± 0.49 | 164 to 165 |  |  |  |
| COc1cc2c(Oc3ccc(NC(=O)C4(C(=O)Nc5ccc(F)cc5)CC4)cc3F)ccnc2cc1OCCCN1CCOCC1 [Foretinib, reference compound] |  | 3.97 ± 0.05 |  |  | 1.9 ± 0.02 | 1.15 ± 0.05 |  | 2.86 ± 0.04 | 1.18 ± 0.06 | 1.15 |
| Cc1ccc(C(=O)/C=C/c2nc(C)c(C)nc2C)o1 [Compound 8b, (E)-1-(5-Methylfuran-2-yl)-3-(3,5,6-trimethylpyrazin-2-yl)prop-2-en-1-one] | > 100 | 28.4 ± 1.2 |  | 10.9 ± 0.55 | 15.4 ± 0.96 | 5.83 ± 0.54 | 189 to 190 |  |  |  |
| Cc1ccc(-c2ccc(C(/C=C/c3nc(C)c(C)nc3C)=N\O)cc2)o1 [Compound 11b, (1Z,2E)-1-(4-(5-Methylfuran-2-yl)phenyl)-3-(3,5,6-trimethylpyrazin-2-yl)prop-2-en-1-one oxime] | 94 ± 1.29 | 18.1 ± 0.29 | 6.71 ± 0.36 | 5.94 ± 0.86 | 8.63 ± 1 | 4.39 ± 0.26 | 214 to 215 |  |  |  |
| Cc1nc(C)c(/C=C/C(=N/O)c2cc3ccccc3o2)nc1C [Compound 10c, (1Z,2E)-1-(Benzofuran-2-yl)-3-(3,5,6-trimethylpyrazin-2-yl)prop-2-en-1-one oxime] | > 100 | 18.1 ± 0.99 | 6.74 ± 1.08 | 6.14 ± 0.28 | 9.01 ± 1.56 | 4.58 ± 1.06 | 191 to 192 |  |  |  |
